Experimental data taken from patent US20140079836A1, “METHODS AND COMPOSITIONS FOR ALTERING HEALTH, WELLBEING, AND LIFESPAN” (LifeSpan Extension, LLC, priority 2008, published 2014).

Test system: Custom Array II Genes
Test: Custom Array II gene expression, antioxidant alone or + UVB
Assay type: cell-based

COC1=C(OC)C(=O)C(CCCCCCCCCCO)=C(C)C1=O [Idebenone, 6-(10-hydroxydecyl)-2,3-dimethoxy-5-methyl-1,4-benzoquin-one]
ACE (NM_000789) Expression (+ UVB): −1.1 | ACTB (NM_001101) Expression (+ UVB): −1.1 | APOE (NM_000041) Expression (+ UVB): −1.2 | BAX (NM_004324) Expression (+ UVB): 1.3 | BCL2 (NM_000633) Expression (+ UVB): 1.6 | BCL2L1 (NM_138578) Expression (+ UVB): 1.0 | BMP2 (NM_001200) Expression (+ UVB): −1.7 | CASP2 (NM_032982) Expression (+ UVB): −1.3 | CASP9 (NM_001229) Expression (+ UVB): 1.0 | CCL4L1 (NM_001001435) Expression (+ UVB): 1.2 | CDKN2A (NM_000077) Expression (+ UVB): −1.0 | CLK1 (NM_004071) Expression (+ UVB): −1.1 | COL1A1 (NM_000088) Expression (+ UVB): −1.0 | COL3A1 (NM_000090) Expression (+ UVB): −1.2 | COX1 (NP_536845) Expression (+ UVB): 1.5 | CREBBP (NM_004380) Expression (+ UVB): −1.1 | CRP (NM_000567) Expression (+ UVB): 1.0 | CYP19A1 (NM_000103) Expression (+ UVB): 1.0 | DDC (NM_000790) Expression (+ UVB): 1.0 | DUSP2 (NM_004418) Expression (+ UVB): 1.1 | EGF (NM_001963) Expression (+ UVB): 1.0 | EGR2 (NM_000399) Expression (+ UVB): 1.7 | FOS (NM_005252) Expression (+ UVB): −1.4 | FOXO3 (NM_001455) Expression (+ UVB): −1.3 | GADPH (NM_002046) Expression (+ UVB): −1.2 | GCH1 (NM_000161) Expression (+ UVB): −1.7 | GH1 (NM_000515) Expression (+ UVB): 1.3 | GPX1 (NM_000581) Expression (+ UVB): −1.1 | HBEGF (NM_001945) Expression (+ UVB): 1.8 | HGDC (SA_00105) Expression (+ UVB): 1.1 | HLA-DRA (NM_019111) Expression (+ UVB): 1.0 | HMOX1 (NM_002133) Expression (+ UVB): 1.0 | HPRT1 (NM_000194) Expression (+ UVB): 1.3 | HSPA1A (NM_005345) Expression (+ UVB): −1.3 | HSPA1B (NM_005346) Expression (+ UVB): −1.3 | HSPA1L (NM_005527) Expression (+ UVB): −1.1 | HSPA6 (NM_002155) Expression (+ UVB): −1.8 | IFI44 (NM_006417) Expression (+ UVB): 1.0 | IGF1 (NM_000618) Expression (+ UVB): 1.1 | IGF2 (NM_000612) Expression (+ UVB): 1.0 | IL1A (NM_000575) Expression (+ UVB): 1.0 | IL6 (NM_000600) Expression (+ UVB): 1.5 | IL8 (NM_000584) Expression (+ UVB): 1.0 | IL10 (NM_000572) Expression (+ UVB): 1.1 | IL11 (NM_000641) Expression (+ UVB): 1.1 | IL33 (NM_033439) Expression (+ UVB): 2.3 | IMMP1L (NM_144981) Expression (+ UVB): 1.2 | JUN (NM_002228) Expression (+ UVB): −1.1 | KIT (NM_000222) Expression (+ UVB): 1.4 | KL (NM_004795) Expression (+ UVB): 1.0 | KRAS (NM_004985) Expression (+ UVB): 1.0 | MAPK14 (NM_001315) Expression (+ UVB): −1.4 | MMP1 (NM_002421) Expression (+ UVB): 1.0 | NADSYN1 (NM_018161) Expression (+ UVB): −1.1 | NEIL1 (NM_024608) Expression (+ UVB): 1.0 | NFKB1 (NM_003998) Expression (+ UVB): −1.1 | NOS1 (NM_000620) Expression (+ UVB): 1.2 | NOS2 (NM_000625) Expression (+ UVB): 1.0 | NOS3 (NM_000603) Expression (+ UVB): −1.0 | PARP1 (NM_001618) Expression (+ UVB): 1.0 | PARP2 (NM_005484) Expression (+ UVB): 1.2 | PARP3 (NM_005485) Expression (+ UVB): 1.1 | PARP4 (NM_006437) Expression (+ UVB): 4.7 | PARP9 (NM_031458) Expression (+ UVB): −1.1 | PDGFRL (NM_006207) Expression (+ UVB): 1.2 | POT1 (NM_015450) Expression (+ UVB): 1.2 | PPARG (NM_015869) Expression (+ UVB): −1.2 | PPARGC1 (NM_013261) Expression (+ UVB): −1.2 | PPC (SA_00103) Expression (+ UVB): 1.0 | PTGS2 (NM_000963) Expression (+ UVB): 1.3 | RAP1A (NM_002884) Expression (+ UVB): −1.2 | RTC (SA_00104) Expression (+ UVB): 1.2 | S100A7 (NM_002963) Expression (+ UVB): 1.3 | SERPINB (NM_002575) Expression (+ UVB): 1.0 | SHC1 (NM_003029) Expression (+ UVB): −1.1 | SIRT1 (NM_012238) Expression (+ UVB): 1.1 | SIRT2 (NM_012237) Expression (+ UVB): −1.1 | SIRT3 (NM_012239) Expression (+ UVB): −1.2 | SIRT4 (NM_012240) Expression (+ UVB): 1.0 | SOD1 (NM_000454) Expression (+ UVB): −1.1 | SOD2 (NM_000636) Expression (+ UVB): 1.0 | TEP1 (NM_007110) Expression (+ UVB): 1.1 | TERF2 (NM_005652) Expression (+ UVB): −1.1 | TERT (NM_198255) Expression (+ UVB): −1.3 | TGFB1 (NM_000660) Expression (+ UVB): −1.2 | TIMM22 (NM_013337) Expression (+ UVB): −1.1 | TIMP3 (NM_000362) Expression (+ UVB): −1.3 | TINF2 (NM_012461) Expression (+ UVB): 1.1 | TNF (NM_000594) Expression (+ UVB): −2.6 | TOMM40 (NM_006114) Expression (+ UVB): −1.8 | TP53 (NM_000546) Expression (+ UVB): −1.3 | TPP1 (NM_000391) Expression (+ UVB): 1.0 | UBE2S (NM_014501) Expression (+ UVB): −1.3 | VEGFA (NM_003376) Expression (+ UVB): −1.3 | ACE (NM_000789) Expression (Alone): −1.0 | ACTB (NM_001101) Expression (Alone): 1.0 | APOE (NM_000041) Expression (Alone): 1.0 | BAX (NM_004324) Expression (Alone): 1.3 | BCL2 (NM_000633) Expression (Alone): 1.2 | BCL2L1 (NM_138578) Expression (Alone): 1.0 | BMP2 (NM_001200) Expression (Alone): 1.1 | CASP2 (NM_032982) Expression (Alone): 1.0 | CASP9 (NM_001229) Expression (Alone): −1.0 | CCL4L1 (NM_001001435) Expression (Alone): 1.0 | CDKN2A (NM_000077) Expression (Alone): 1.0 | CLK1 (NM_004071) Expression (Alone): 1.0 | COL1A1 (NM_000088) Expression (Alone): 1.0 | COL3A1 (NM_000090) Expression (Alone): −1.1 | COX1 (NP_536845) Expression (Alone): 1.0 | CREBBP (NM_004380) Expression (Alone): 1.0 | CRP (NM_000567) Expression (Alone): −1.0 | CYP19A1 (NM_000103) Expression (Alone): 1.4 | DDC (NM_000790) Expression (Alone): 1.0 | DUSP2 (NM_004418) Expression (Alone): 1.0 | EGF (NM_001963) Expression (Alone): 1.0 | EGR2 (NM_000399) Expression (Alone): 1.0 | FOS (NM_005252) Expression (Alone): 1.0 | FOXO3 (NM_001455) Expression (Alone): 1.0 | GADPH (NM_002046) Expression (Alone): 1.3 | GCH1 (NM_000161) Expression (Alone): 1.0 | GH1 (NM_000515) Expression (Alone): 1.0 | GPX1 (NM_000581) Expression (Alone): 1.0 | HBEGF (NM_001945) Expression (Alone): 1.0 | HGDC (SA_00105) Expression (Alone): 1.2 | HLA-DRA (NM_019111) Expression (Alone): 1.0 | HMOX1 (NM_002133) Expression (Alone): −1.0 | HPRT1 (NM_000194) Expression (Alone): 1.2 | HSPA1A (NM_005345) Expression (Alone): −1.0 | HSPA1B (NM_005346) Expression (Alone): −1.0 | HSPA1L (NM_005527) Expression (Alone): 1.0 | HSPA6 (NM_002155) Expression (Alone): −1.1 | IFI44 (NM_006417) Expression (Alone): −1.6 | IGF1 (NM_000618) Expression (Alone): 1.1 | IGF2 (NM_000612) Expression (Alone): 1.0 | IL1A (NM_000575) Expression (Alone): −1.0 | IL6 (NM_000600) Expression (Alone): −1.0 | IL8 (NM_000584) Expression (Alone): −1.2 | IL10 (NM_000572) Expression (Alone): 1.1 | IL11 (NM_000641) Expression (Alone): −1.1 | IL33 (NM_033439) Expression (Alone): −1.1 | IMMP1L (NM_144981) Expression (Alone): −1.0 | JUN (NM_002228) Expression (Alone): 1.0 | KIT (NM_000222) Expression (Alone): −1.3 | KL (NM_004795) Expression (Alone): 1.0 | KRAS (NM_004985) Expression (Alone): −1.4 | MAPK14 (NM_001315) Expression (Alone): 1.0 | MMP1 (NM_002421) Expression (Alone): 1.0 | NADSYN1 (NM_018161) Expression (Alone): 1.2 | NEIL1 (NM_024608) Expression (Alone): 1.5 | NFKB1 (NM_003998) Expression (Alone): −1.5 | NOS1 (NM_000620) Expression (Alone): 1.9 | NOS2 (NM_000625) Expression (Alone): 1.1 | NOS3 (NM_000603) Expression (Alone): 1.0 | PARP1 (NM_001618) Expression (Alone): 1.3 | PARP2 (NM_005484) Expression (Alone): 1.3 | PARP3 (NM_005485) Expression (Alone): −1.0 | PARP4 (NM_006437) Expression (Alone): 1.1 | PARP9 (NM_031458) Expression (Alone): 1.0 | PDGFRL (NM_006207) Expression (Alone): −1.1 | POT1 (NM_015450) Expression (Alone): −1.0 | PPARG (NM_015869) Expression (Alone): −1.0 | PPARGC1 (NM_013261) Expression (Alone): −1.0 | PPC (SA_00103) Expression (Alone): 1.0 | PTGS2 (NM_000963) Expression (Alone): −1.2 | RAP1A (NM_002884) Expression (Alone): 1.3 | RTC (SA_00104) Expression (Alone): 1.1 | S100A7 (NM_002963) Expression (Alone): 1.1 | SERPINB (NM_002575) Expression (Alone): 1.1 | SHC1 (NM_003029) Expression (Alone): −1.4 | SIRT1 (NM_012238) Expression (Alone): −1.2 | SIRT2 (NM_012237) Expression (Alone): −1.0 | SIRT3 (NM_012239) Expression (Alone): −1.1 | SIRT4 (NM_012240) Expression (Alone): 1.1 | SOD1 (NM_000454) Expression (Alone): −1.0 | SOD2 (NM_000636) Expression (Alone): −1.2 | TEP1 (NM_007110) Expression (Alone): 1.1 | TERF2 (NM_005652) Expression (Alone): 1.0 | TERT (NM_198255) Expression (Alone): 1.1 | TGFB1 (NM_000660) Expression (Alone): −1.1 | TIMM22 (NM_013337) Expression (Alone): 1.1 | TIMP3 (NM_000362) Expression (Alone): 1.2 | TINF2 (NM_012461) Expression (Alone): 1.1 | TNF (NM_000594) Expression (Alone): −1.1 | TOMM40 (NM_006114) Expression (Alone): 1.0 | TP53 (NM_000546) Expression (Alone): −1.1 | TPP1 (NM_000391) Expression (Alone): −1.1 | UBE2S (NM_014501) Expression (Alone): 1.2 | VEGFA (NM_003376) Expression (Alone): −1.7
